According to PubChem BioAssay (NCI):
Where “and” joins values, the source holds several entries; their conditions need not be identical. Equal entries are not always repeated.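 The compound was tested at five concentrations on cells cultured in 96-well plates, with a 48-hour exposure period. At the GI50, growth is halved. At the TGI there is no net growth.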

Tests used:
Assay in all cases: inhibition of tumour cell growth, NCI panel, 48 h
DU-145 prostate = system: DU-145 prostate
HOP-92 NSCLC = system: HOP-92 NSCLC
NCI-H460 lung = system: NCI-H460 lung
OVCAR-3 ovarian = system: OVCAR-3 ovarian
OVCAR-4 ovarian = system: OVCAR-4 ovarian
OVCAR-8 ovarian = system: OVCAR-8 ovarian
SF-539 CNS = system: SF-539 CNS
SK-MEL-2 melanoma = system: SK-MEL-2 melanoma
CCRF-CEM leukemia = system: CCRF-CEM leukemia
HOP-62 NSCLC = system: HOP-62 NSCLC

| Compound | GI50 (DU-145 prostate) | TGI (DU-145 prostate) | GI50 (HOP-92 NSCLC) | TGI (HOP-92 NSCLC) | GI50 (NCI-H460 lung) | TGI (NCI-H460 lung) | GI50 (OVCAR-3 ovarian) | TGI (OVCAR-3 ovarian) | GI50 (OVCAR-4 ovarian) | TGI (OVCAR-4 ovarian) | GI50 (OVCAR-8 ovarian) | TGI (OVCAR-8 ovarian) | GI50 (SF-539 CNS) | TGI (SF-539 CNS) | GI50 (SK-MEL-2 melanoma) | TGI (SK-MEL-2 melanoma) | GI50 (CCRF-CEM leukemia) | GI50 (HOP-62 NSCLC) | TGI (HOP-62 NSCLC) | TGI (CCRF-CEM leukemia) |
| --- | --- | --- | --- | --- | --- | --- | --- | --- | --- | --- | --- | --- | --- | --- | --- | --- | --- | --- | --- | --- |
| O=C1C(=O)c2cc([N+](=O)[O-])ccc2-c2ccccc21 | 1.74 µM | 3.16 µM | 1.66 µM | 3.12 µM | 1.78 µM | 3.35 µM | 1.42 µM | 2.76 µM | 1.25 µM | 2.66 µM | 1.71 µM | 3.6 µM | 1.82 µM | 3.24 µM | 1.55 µM | 3.05 µM |  |  |  |  |
| CNC(=O)c1ccc(Nc2ncc(C(F)(F)F)c(NCc3nccnc3N(C)S(C)(=O)=O)n2)cc1 | 2.6 µM and 2.1 µM and 2.75 µM | > 10 µM and 10.9 µM and 15.9 µM |  | 2.37 µM and 6.54 µM and 6.4 µM | 2.05 µM and 2.75 µM and 2.16 µM | > 10 µM and 10.2 µM and 11.1 µM | 3.16 µM and 2.26 µM and 2.71 µM | > 10 µM and 8.43 µM and 12.8 µM | 5.37 µM and 2.41 µM and 1.9 µM | > 10 µM and 12.8 µM and 10.5 µM | 3.44 µM and 3.69 µM and 3.83 µM | > 10 µM and 13.6 µM and 18 µM | 1.86 µM and 1.99 µM and 1.82 µM | 4.76 µM and 5.11 µM and 4.9 µM | 0.783 µM and 1.32 µM and 1.6 µM | 3.71 µM and 4.28 µM and 4.63 µM | 3.27 µM and 3.21 µM and 3.36 µM | 2.16 µM and 2.07 µM and 1.98 µM | > 10 µM and 9.71 µM and 9.8 µM |  |
| COc1ccc(C(=O)/C=C/c2cc3ccccc3[nH]c2=O)cc1 | 17.8 µM | 41.9 µM | 17 µM | 37.3 µM | 19.8 µM | > 43.4 µM | 17.9 µM | 36.4 µM | 19.5 µM | > 100 µM | 21.7 µM | > 100 µM | 18.7 µM | 39.8 µM | 23 µM | > 73.8 µM | 22.3 µM | 20.5 µM | 42.6 µM | > 100 µM |
| CC[C@H](C)c1occ2c(O)c(C(=O)O)c(=O)cc-2c1C |  | > 100 µM |  | 49.6 µM |  | 60.6 µM |  | 42.4 µM |  | 68.2 µM |  | 41.4 µM |  | 46.3 µM |  | 34 µM |  |  | 69.1 µM | 53.5 µM |
| CCCCCCN(CCCCCC)C(=N)c1ccnc2ccccc12 | 13.5 µM | 26.6 µM | 1.39 µM | 9.22 µM | 2.59 µM | 12.7 µM | 10.3 µM | 22.4 µM | 5.98 µM | 19.6 µM | 10.4 µM | 24.1 µM | 5.12 µM | 17.5 µM | 3.66 µM | 12.2 µM | 3.17 µM | 10.8 µM | 24.2 µM | 18.4 µM |
| COc1ccc(C(=S)c2cc(OC)c(OC)c(OC)c2)cc1OC(=O)CCl | 0.0311 µM | > 100 µM | 0.55 µM | > 100 µM | 0.0301 µM | 12.9 µM | 0.0227 µM | 0.0813 µM | 0.073 µM | > 100 µM | 0.0355 µM | > 100 µM | < 0.011 µM | 0.0499 µM | 33.1 µM | > 100 µM | < 0.0167 µM | 0.0614 µM | > 100 µM | > 100 µM |
| [N-]=[N+]=NC1(N=[N+]=[N-])C(=O)NN=C(c2ccccc2)C1=O (centres undefined) |  | > 100 µM |  | > 100 µM |  | > 100 µM |  | > 100 µM |  | > 100 µM |  | > 100 µM |  | > 100 µM |  |  |  |  | > 100 µM | 83.9 µM |
| COc1ccc(NC(=O)C(=O)C(CC2C(=O)NC(=S)NC2=O)C(=O)c2ccc3ccccc3c2)c([N+](=O)[O-])c1 (centres undefined) |  | > 100 µM |  | > 100 µM |  | > 100 µM |  | > 100 µM |  | > 100 µM |  | > 100 µM |  | > 100 µM |  | > 100 µM |  |  |  | > 100 µM |
| N=c1ccn2c(n1)OC1C(OP(=O)(O)O)C(CO)OC12 (centres undefined) |  | > 100 µM |  | > 100 µM |  | > 39.2 µM |  | > 100 µM |  | > 100 µM |  | > 100 µM |  | > 100 µM |  | > 100 µM |  |  | > 100 µM |  |
| O=C1C=C(Nc2ccccc2)c2ncccc2C1=O | 0.341 µM | 1.12 µM | 1.49 µM | 2.97 µM | 0.35 µM | 1.11 µM | 0.28 µM | 0.825 µM | 0.321 µM | 1.11 µM | 0.373 µM | 1.4 µM | 0.356 µM | 1.21 µM | 1.91 µM | 3.67 µM |  | 0.376 µM | 1.49 µM |  |
| CCCCCCCCN(CCCCCCCC)C(=N)c1ccnc2ccccc12 | 1.08 µM | 2.31 µM | 1.02 µM | 2.32 µM |  |  | 1.2 µM | 2.54 µM | 1.2 µM | 2.6 µM | 1.58 µM | 3.27 µM | 1.54 µM | 2.99 µM | 1.78 µM | 3.35 µM | 0.466 µM | 1.42 µM | 2.88 µM | 2.2 µM |
| CCCCCCCC1c2cc3[nH]c(cc4nc(cc5[nH]c(cc(n2)[C@@]1(C)CC(=O)N(C)C)c(C)c5CCC(=O)O)C(CCC(=O)O)=C4C)cc3C (some centres undefined) |  | 57 µM |  | 43.8 µM |  | 43.8 µM |  | 37.1 µM |  | > 100 µM |  |  |  | 34.2 µM |  | 34 µM |  |  | 35.4 µM | 42.6 µM |
| CON(C)C(=O)C(Cc1ccccc1)NC(=O)OC(C)(C)C (centres undefined) |  | > 100 µM |  | > 100 µM |  | > 100 µM |  | > 100 µM |  |  |  | > 100 µM |  | > 100 µM |  |  |  |  | > 100 µM | > 100 µM |
| O=c1ncc(-c2ccc(C(F)(F)F)cc2)c(NC2CCCCCC2)[nH]1 | 31.6 µM | 98.1 µM |  |  | 17.7 µM | 35 µM | 17.2 µM | 34.6 µM | 21.3 µM | 77.5 µM | 18.7 µM | 40.4 µM | 15.2 µM | 30.1 µM |  |  | 19.7 µM | 20.3 µM | 36.8 µM | 48 µM |
| Cc1ccc(-c2csc(N(C(=O)N3CCN(c4cc5c(cc4F)c(=O)c(C(=O)O)cn5C4CC4)CC3)c3ccccc3)n2)cc1 | 0.46 µM | > 100 µM | 0.213 µM | 0.798 µM | 0.331 µM | > 100 µM | 0.391 µM | > 100 µM |  |  | 0.405 µM | > 100 µM |  |  | 0.344 µM | 1.75 µM |  | 0.389 µM | > 46.3 µM |  |
| CC(C)(Cl)CCC1=C(Cl)C(=O)c2ccccc2C1=O | 6.12 µM | 18.2 µM |  |  | 3.31 µM | 12.4 µM | 1.72 µM | 3.17 µM | 1.55 µM | 2.89 µM | 2.03 µM | 5.03 µM | 2.01 µM | 4.58 µM | 2.43 µM | 4.97 µM | 1.22 µM | 4.71 µM | 17 µM | 4.79 µM |
| O=C(O)C1C2C=CC(O2)C1C(=O)Nc1ccccc1 (centres undefined) |  | > 100 µM |  |  |  |  |  | > 100 µM |  | > 100 µM |  | > 100 µM |  |  |  | > 100 µM |  |  | > 100 µM | > 100 µM |
| O=C1C2CC3C(CC2C(=O)[N]1[Sn]([c]1ccccc1)([c]1ccccc1)[c]1ccccc1)C1(Cl)C(Cl)=C(Cl)C3(Cl)C1(Cl)Cl (centres undefined) | 0.0701 µM | 0.2 µM | 0.0529 µM | 0.221 µM |  |  | 0.0964 µM | 0.222 µM | 0.0781 µM | 0.289 µM | 0.155 µM | 0.375 µM | 0.179 µM | 0.369 µM | 0.167 µM | 0.351 µM | 0.0645 µM | 0.192 µM | 0.427 µM | 0.371 µM |
| O=c1[nH]cnc2c(C3OC(CO)C(O)C3O)[nH]nc12 (centres undefined) |  | 38.2 µM |  |  |  | > 100 µM |  | 53.5 µM |  | 48.6 µM |  | 70.3 µM |  | > 100 µM |  |  |  |  | > 100 µM | > 100 µM |
| CCN1C(=O)N(CC)C2C1NN=c1s/c(=C3\C(=O)N(CCC(C)C)c4ccccc43)c(=O)n12 (centres undefined) | 2.91 µM | 9.33 µM | 1.47 µM | 5.83 µM |  |  | 1.75 µM | 4.33 µM | 1.02 µM | > 100 µM |  |  | 1.11 µM | 2.42 µM | 2.32 µM | 11.4 µM | 2.66 µM | 1.89 µM | 6.45 µM | > 100 µM |
| COc1ccc(OC)c(/C=C/c2nnc(Nc3ccc(Cl)cc3)o2)c1 | 11.4 µM | 36.9 µM |  |  | 3.77 µM | > 100 µM | 3.55 µM | 15.9 µM | 2.44 µM | 6.76 µM | 4.91 µM | 21 µM | 11.8 µM | 60.5 µM | 9.66 µM | > 100 µM | > 100 µM | 2.71 µM | 7.68 µM | > 100 µM |
| COc1cc2[nH]c(C(=O)c3cc(OC)c(OC)c(OC)c3)c(N)c2cc1C#CCO |  |  | 0.0862 µM | 90.7 µM | 0.394 µM | > 100 µM | 0.0491 µM | 0.243 µM | 0.528 µM | > 100 µM | 0.533 µM | > 100 µM | 0.138 µM | 0.491 µM | 0.485 µM | > 100 µM | 0.309 µM | 0.322 µM | > 100 µM | > 100 µM |
| Oc1c(Br)cc(Br)cc1CN(Cc1cc(Br)cc(Br)c1O)C1CCCCC1 |  | > 100 µM |  | > 100 µM |  |  |  | 53.8 µM |  | > 100 µM |  | > 100 µM |  |  |  | 45.4 µM |  |  | 97.5 µM |  |
